Reference: patent publication US5554542A, “Immunoassay for isothiazolones” (Rohm and Haas Company, priority 1993, dated 1996)
Values belong to the compound of their own block, whether it stands above or below them.

Assays:
[1] = tested on: antibodies produced by cell culture 89-147EH9; assay: CIEIA for detection of biocides, four inhibitors at several concentrations; type: binding, mouse; settings: no inhibitor 515
Experimental: The supernatants from wells with growing colonies of hybridomas were screened using CIEIA. Ninety-six well polystyrene EIA ([…]) plates were coated with 100 μl of 651 conjugated to BSA (651-BSA) for at least two hours at room temperature or 16 hours at 4° C. Unbound material was washed from the wells with five washes of PBS-T. […] The wells then received 50 μl of supernatant from each cell culture, so that each supernatant was reacted with either buffer, 651 or 573 (inhibitors). […] The wells were incubated for 30-60 minutes at room temperature. They were then washed five times with PBS-T to remove unbound material and each well then received 100 μl of a 1 μg/ml solution of biotinylated horse anti-mouse IgG (Vector Laboratories, Burlingame, Calif.), and the assay continued as described for the ELISA, supra.

[2] = tested on: anti-651 antibody covalently linked to horseradish peroxidase; assay: Colorometric determination of isothiazolones in wood with anti-651-HRP; type: binding; settings: pressure treated Southern Yellow pine wafer, anti-651-HRP 500 ng/ml, ABTS, corrected for background; control wafer 0.002
Experimental: Southern Yellow pine, which had been pressure treated with a solution containing 4,5-dichloro-2-n-octyl-3-isothiazolone using commercial methods, was cut into wafers (0.5×2.5 cm). These wood wafers were soaked in a solution of 3% nonfat milk for 30 minutes. The wafers were then rinsed briefly with PBS-T, and then exposed to the anti-651 antibody, which is covalently linked to horseradish peroxidase at 500 ng/ml, for 15 minutes. The wafers were then washed twice for 30 minutes each in PBS-T buffer. The bound anti-651-HRP complex was visualized by placing the wafers in a vial containing HRP substrate (ABTS). The appearance of a […] color in the solution indicated the presence of 4,5-dichloro-2-n-octyl-3-isothiazolone. A 200 μl aliquot of the solution in the vial was taken and the absorbance determined at 405 nm. This was compared to a control wood wafer treated in an identical manner but containing no isothiazolone. The absorbance values were then corrected for background.

Compound: CNC(=O)CC(=O)O [NMA, Nmethyl malonamic acid]
10 Minute Absorbances × 1000 ([1]; inhibitor concentration 0.08 ppm): 429
10 Minute Absorbances × 1000 ([1]; inhibitor concentration 0.4 ppm): 519
10 Minute Absorbances × 1000 ([1]; inhibitor concentration 2 ppm): 496
10 Minute Absorbances × 1000 ([1]; inhibitor concentration 10 ppm): 518
10 Minute Absorbances × 1000 ([1]; inhibitor concentration 50 ppm): 490

A405 [2]: 0.165
Compound: CCCCCCCCn1sc(Cl)c(Cl)c1=O [compound 287, 4,5-dichloro-2-n-octyl-3-isothiazolone]

Compound: CCCCCCCCn1sccc1=O [compound 893, 2-n-octyl-3-isothiazolone]
10 Minute Absorbances × 1000 ([1]; inhibitor concentration 2 ppm): 514
10 Minute Absorbances × 1000 ([1]; inhibitor concentration 10 ppm): 589
10 Minute Absorbances × 1000 ([1]; inhibitor concentration 50 ppm): 516
